Laboratory results taken from US10022451B2, “Encapsulated agents and methods of making and using thereof” (University of Georgia Research Foundation, Inc., priority 2014, dated 2018).

How the values were obtained:
[1] = in tetrahydrofuran; cited from earlier work
[2] = Stability of P-RFRTs in PBS and at pH 2; format: physicochemical; conditions: same concentration

zinc hexadecafluoro-phthalocyanine [ZnF16Pc]
ΦΔ [1]: 0.85
Stability in PBS [2]: quickly precipitated out due to its poor solubility
